Assay results: US20050256003A1, “Novel herbicides” (priority 2002, published 2005)

How the values were obtained:
[1] = test system: monocotyledonous and dicotyledonous test plants; assay: Herbicidal action prior to emergence of the plants (pre-emergence action); format: in vivo; design: key: 10=total damage; 0=no action; Ratings of from 10 to 7 (especially from 10 to 8) indicate good to very good herbicidal action; conditions: 250 g a.i./ha, pre-emergence spray, evaluated after 3 weeks, scale 10=total damage, 0=no action
From the text: Herbicidal Action Prior to Emergence of the Plants (Pre-Emergence Action)
Monocotyledonous and dicotyledonous test plants are sown in standard soil in plastic pots Immediately after sowing, the test compounds, in the form of an aqueous suspension (prepared from a 25% wettable powder (Example F3, b) according to WO 97/34485) or in the form of an emulsion (prepared from a 25% emulsifiable concentrate (Example F1, c)), are applied by spraying in a concentration corresponding to 125 g or 250 g of active ingredient/ha (500 litres of water/ha). The test plants are then grown in a greenhouse under optimum conditions. After a test duration of 3 weeks, the test is evaluated in accordance with a scale of nine ratings (10=total damage, 0=no action). Ratings of from 10 to 7 (especially from 10 to 8) indicate good to very good herbicidal action.

[2] = test system: monocotyledonous and dicotyledonous test plants; assay: Post-emergence herbicidal action; format: in vivo; design: key: 10=total damage; 0=no action; Ratings of from 10 to 7 (especially from 10 to 8) indicate good to very good herbicidal action; conditions: 250 g a.i./ha, about 18 days, rating 0-10
Description: Post-Emergence Herbicidal Action
In a greenhouse, monocotyledonous and dicotyledonous test plants are grown in standard soil in plastic pots and at the 4- to 6-leaf stage are sprayed with an aqueous suspension of the test compounds of formula I prepared from a 25% wettable powder (Example F3, b) according to WO 97/34485) or with an emulsion of the test compounds of formula I prepared from a 25% emulsifiable concentrate (Example F1, c) according to WO 97/34485), in a concentration corresponding to 125 g or 250 g of active ingredient/ha (500 litres of water/ha). The test plants are then grown on in a greenhouse under optimum conditions. After a test duration of about 18 days, the test is evaluated in accordance with a scale of nine ratings (10=total damage, 0=no action). Ratings of from 10 to 7 (especially from 10 to 8) indicate good to very good herbicidal action.

Cc1nn(CCOCc2nc(C(F)(F)F)ccc2C(=O)C2=C(O)C3CCC(C3)C2=O)c(=O)o1 (stereo not shown) [Compound A6.100]
Pre-emergence action: Abutilon (rating) [1]: 10
Pre-emergence action: Amaranthus (rating) [1]: 10
Pre-emergence action: Chenopodium (rating) [1]: 10
Pre-emergence action: Cyperus (rating) [1]: 6
Pre-emergence action: Echinochloa (rating) [1]: 10
Pre-emergence action: Panicum (rating) [1]: 10
Pre-emergence action: Scirpus (rating) [1]: 10
Pre-emergence action: Sida (rating) [1]: 10
Post-emergence action, Amaranthus [2]: 9
Post-emergence action, Chenopodium [2]: 10
Post-emergence action, Echinochloa [2]: 7
Post-emergence action, Euphorbia [2]: 7
Post-emergence action, Ipomea [2]: 9
Post-emergence action, Sinapis [2]: 8
Post-emergence action, Stellaria [2]: 9
Post-emergence action, Xanthium [2]: 7

Cc1nn(Cc2nc(C(F)(F)F)ccc2C(=O)C2=C(O)CCCC2=O)c(=O)s1 [Compound A1.079]
Pre-emergence action: Abutilon (rating) [1]: 10
Pre-emergence action: Amaranthus (rating) [1]: 4
Pre-emergence action: Chenopodium (rating) [1]: 8
Pre-emergence action: Cyperus (rating) [1]: 8
Pre-emergence action: Echinochloa (rating) [1]: 5
Pre-emergence action: Panicum (rating) [1]: 9
Pre-emergence action: Scirpus (rating) [1]: 10
Pre-emergence action: Sida (rating) [1]: 10
Post-emergence action, Amaranthus [2]: 9
Post-emergence action, Chenopodium [2]: 9
Post-emergence action, Echinochloa [2]: 7
Post-emergence action, Euphorbia [2]: 8
Post-emergence action, Ipomea [2]: 8
Post-emergence action, Sinapis [2]: 9
Post-emergence action, Stellaria [2]: 9
Post-emergence action, Xanthium [2]: 7

Cc1nn(Cc2nc(C(F)(F)F)ccc2C(=O)C2=C(O)C3CCC(C3)C2=O)c(=O)s1 (stereo not shown) [Compound A6.079]
Pre-emergence action: Abutilon (rating) [1]: 10
Pre-emergence action: Amaranthus (rating) [1]: 7
Pre-emergence action: Chenopodium (rating) [1]: 10
Pre-emergence action: Cyperus (rating) [1]: 6
Pre-emergence action: Echinochloa (rating) [1]: 7
Pre-emergence action: Panicum (rating) [1]: 9
Pre-emergence action: Scirpus (rating) [1]: 9
Pre-emergence action: Sida (rating) [1]: 6

COc1nn(Cc2nc(C(F)(F)F)ccc2C(=O)c2cnn(C)c2O)c(=O)s1 [Compound B1.096]
Pre-emergence action: Abutilon (rating) [1]: 10
Pre-emergence action: Amaranthus (rating) [1]: 10
Pre-emergence action: Chenopodium (rating) [1]: 10
Pre-emergence action: Cyperus (rating) [1]: 7
Pre-emergence action: Panicum (rating) [1]: 7
Pre-emergence action: Scirpus (rating) [1]: 7
Pre-emergence action: Sida (rating) [1]: 7
Post-emergence action, Amaranthus [2]: 7
Post-emergence action, Chenopodium [2]: 10
Post-emergence action, Echinochloa [2]: 6
Post-emergence action, Euphorbia [2]: 7
Post-emergence action, Ipomea [2]: 7
Post-emergence action, Sinapis [2]: 9
Post-emergence action, Stellaria [2]: 8
Post-emergence action, Xanthium [2]: 8

Cn1ncn(Cc2nc(C(F)(F)F)ccc2C(=O)C2=C(O)C(C)(C)C(=O)C(C)(C)C2=O)c1=O [Compound A8.080]
Pre-emergence action: Abutilon (rating) [1]: 10
Pre-emergence action: Amaranthus (rating) [1]: 0
Pre-emergence action: Chenopodium (rating) [1]: 10
Pre-emergence action: Cyperus (rating) [1]: 0
Pre-emergence action: Echinochloa (rating) [1]: 10
Pre-emergence action: Panicum (rating) [1]: 9
Pre-emergence action: Scirpus (rating) [1]: 8
Pre-emergence action: Sida (rating) [1]: 9
Post-emergence action, Amaranthus [2]: 9
Post-emergence action, Chenopodium [2]: 10
Post-emergence action, Echinochloa [2]: 9
Post-emergence action, Euphorbia [2]: 9
Post-emergence action, Ipomea [2]: 10
Post-emergence action, Sinapis [2]: 10
Post-emergence action, Stellaria [2]: 10
Post-emergence action, Xanthium [2]: 8

Cn1ncn(Cc2nc(C(F)(F)F)ccc2C(=O)C2=C(O)CCCC2=O)c1=O [Compound A1.073]
Pre-emergence action: Abutilon (rating) [1]: 10
Pre-emergence action: Amaranthus (rating) [1]: 10
Pre-emergence action: Chenopodium (rating) [1]: 10
Pre-emergence action: Cyperus (rating) [1]: 10
Pre-emergence action: Echinochloa (rating) [1]: 3
Pre-emergence action: Panicum (rating) [1]: 10
Pre-emergence action: Scirpus (rating) [1]: 10
Pre-emergence action: Sida (rating) [1]: 9
Post-emergence action, Amaranthus [2]: 10
Post-emergence action, Chenopodium [2]: 10
Post-emergence action, Echinochloa [2]: 9
Post-emergence action, Euphorbia [2]: 9
Post-emergence action, Ipomea [2]: 10
Post-emergence action, Sinapis [2]: 10
Post-emergence action, Stellaria [2]: 10
Post-emergence action, Xanthium [2]: 9

COc1nn(Cc2nc(C(F)(F)F)ccc2C(=O)C2=C(O)CCCC2=O)c(=O)n1C1CC1 [Compound A1.031]
Post-emergence action, Amaranthus [2]: 9
Post-emergence action, Chenopodium [2]: 10
Post-emergence action, Echinochloa [2]: 7
Post-emergence action, Euphorbia [2]: 8
Post-emergence action, Ipomea [2]: 9
Post-emergence action, Sinapis [2]: 8
Post-emergence action, Stellaria [2]: 9
Post-emergence action, Xanthium [2]: 9

CSC(C)n1c(C)cc(=O)n1Cc1nc(C(F)(F)F)ccc1C(=O)C1=C(O)CCCC1=O (racemic) [Compound A1.055]
Pre-emergence action: Abutilon (rating) [1]: 10
Pre-emergence action: Amaranthus (rating) [1]: 0
Pre-emergence action: Chenopodium (rating) [1]: 10
Pre-emergence action: Cyperus (rating) [1]: 10
Pre-emergence action: Echinochloa (rating) [1]: 10
Pre-emergence action: Panicum (rating) [1]: 9
Pre-emergence action: Scirpus (rating) [1]: 9
Pre-emergence action: Sida (rating) [1]: 10

COc1nn(Cc2nc(C(F)(F)F)ccc2C(=O)C2=C(O)C(C)(C)C(=O)C(C)(C)C2=O)c(=O)s1 [Compound A8.095]
Post-emergence action, Amaranthus [2]: 9
Post-emergence action, Chenopodium [2]: 5
Post-emergence action, Echinochloa [2]: 9
Post-emergence action, Euphorbia [2]: 0
Post-emergence action, Ipomea [2]: 9
Post-emergence action, Sinapis [2]: 8
Post-emergence action, Stellaria [2]: 7
Post-emergence action, Xanthium [2]: 8

Cn1ncc(C(=O)c2ccc(C(F)(F)F)nc2Cn2c(=O)oc3cc(Cl)ccc32)c1O [Compound B1.194]
Post-emergence action, Amaranthus [2]: 9
Post-emergence action, Chenopodium [2]: 9
Post-emergence action, Echinochloa [2]: 9
Post-emergence action, Euphorbia [2]: 9
Post-emergence action, Ipomea [2]: 7
Post-emergence action, Sinapis [2]: 7
Post-emergence action, Stellaria [2]: 8
Post-emergence action, Xanthium [2]: 9

Cc1nn(Cc2nc(C(F)(F)F)ccc2C(=O)C2=C(O)C3CCC(C3)C2=O)c(=O)o1 (stereo not shown) [Compound A6.097]
Post-emergence action, Amaranthus [2]: 7
Post-emergence action, Chenopodium [2]: 9
Post-emergence action, Echinochloa [2]: 7
Post-emergence action, Euphorbia [2]: 7
Post-emergence action, Ipomea [2]: 7
Post-emergence action, Sinapis [2]: 8
Post-emergence action, Stellaria [2]: 9
Post-emergence action, Xanthium [2]: 7

O=C1CCCC(O)=C1C(=O)c1ccc(C(F)(F)F)nc1Cn1sccc1=O [Compound A1.109]
Post-emergence action, Amaranthus [2]: 9
Post-emergence action, Chenopodium [2]: 10
Post-emergence action, Echinochloa [2]: 8
Post-emergence action, Euphorbia [2]: 10
Post-emergence action, Ipomea [2]: 9
Post-emergence action, Sinapis [2]: 3
Post-emergence action, Stellaria [2]: 5
Post-emergence action, Xanthium [2]: 9

CCOc1nn(Cc2nc(C(F)(F)F)ccc2C(=O)c2cnn(C)c2O)c(=O)n1C [Compound B1.005]
Post-emergence action, Amaranthus [2]: 9
Post-emergence action, Chenopodium [2]: 9
Post-emergence action, Echinochloa [2]: 4
Post-emergence action, Euphorbia [2]: 9
Post-emergence action, Ipomea [2]: 8
Post-emergence action, Sinapis [2]: 9
Post-emergence action, Stellaria [2]: 8
Post-emergence action, Xanthium [2]: 6

Cc1nn(CCOCc2nc(C(F)(F)F)ccc2C(=O)C2=C(O)C3CCC(C3)C2=O)c(=O)s1 (stereo not shown) [Compound A6.082]
Post-emergence action, Amaranthus [2]: 8
Post-emergence action, Chenopodium [2]: 9
Post-emergence action, Echinochloa [2]: 7
Post-emergence action, Euphorbia [2]: 7
Post-emergence action, Ipomea [2]: 8
Post-emergence action, Sinapis [2]: 5
Post-emergence action, Stellaria [2]: 9
Post-emergence action, Xanthium [2]: 7
